Entries after “also recorded” stand apart in the source; their conditions may differ. *1 amine or outer side, *2 acyl side, *3 side chain or, on linkers, in order; H or OH if unused. Where a SMILES comes first, the peptide text is derived from it. [ ]: non-standard residue; d: D form. The star is where a group is joined. NH(4-phenylbutyl) = c1ccc(CCCCN*)cc1; X1 = C[C@H](N[*:1])C(=O)C(=O)[*:2]
Tests used:
PARL = target: T1, PARL (Homo sapiens, UniProt Q9H300); assay: PARL inhibition assay in cells: cleavage of overexpressed PGAM5-Myc by tetracycline-induced PARL-FLAG, immunoblot; format: cell-based; set-up: expressed in transfected cells; host or cells: Flp-In HEK293 T-REx PARL knockout cells
T1 sequence (Q9H300 53-379): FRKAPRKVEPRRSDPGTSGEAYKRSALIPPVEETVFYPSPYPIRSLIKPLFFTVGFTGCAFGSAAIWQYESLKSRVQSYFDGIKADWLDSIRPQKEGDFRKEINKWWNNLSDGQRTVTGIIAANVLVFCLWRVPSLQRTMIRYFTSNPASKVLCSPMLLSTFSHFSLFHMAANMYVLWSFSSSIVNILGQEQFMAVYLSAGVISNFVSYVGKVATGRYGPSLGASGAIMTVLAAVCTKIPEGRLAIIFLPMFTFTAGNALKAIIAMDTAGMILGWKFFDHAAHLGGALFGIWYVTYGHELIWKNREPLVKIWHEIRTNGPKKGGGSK
Method: PARL inhibition assays in cells were carried out in Flp-In HEK293 T-REx PARL knockout cells stably transfected with tetracycline inducible PARL-FLAG grown in DMEM (Gibco) supplemented with 10% (v/v) tetracycline-free fetal bovine serum (Clontech). For the inhibition assay, 0.7 × 10^6 cells were seeded per well of a 6-well plate, and the next day transfected with 5 μg of human PGAM5-Myc in pcDNA and 15 μg of branched polyethylenimine (Polysciences) per well. Four hours after transfection, the PARL expression was induced by adding tetracycline to 1 μg/mL. Eight hours after transfection, the inhibitors were added to each well in different concentrations in serum-free DMEM with 1% DMSO.
For immunoblot analysis of the effects of PARL inhibitors on PGAM5 cleavage, after overnight incubation with inhibitors, cells from each well were harvested in 1× SDS sample buffer containing 20 mM MgCl2 and Pierce universal nuclease (250 U/mL, Thermo Scientific) and heated to 65 °C for 10 min. Loading volumes for SDS-PAGE were adjusted by measuring total protein concentration in the lysates with Pierce 660 nm Protein Assay Reagent and Ionic Detergent Compatibility Reagent for Pierce 660 nm Protein Assay Reagent (Thermo Scientific). Samples were resolved by SDS-PAGE using a 12% polyacrylamide gel (Biorad) and electrotransferred onto an Immobilon PVDF membrane (Merck Millipore). Blots were blocked using casein blocker (Thermo Scientific) and hPGAM5 was labeled by rabbit anti-Myc antibody (Cell Signaling Technology, cat. #2278, dilution 1:1000) at 4 °C overnight. Blots were washed three times with TBS-T and incubated with IRDye 800 CW donkey anti-rabbit antibody (Invitrogen, cat. #SA5-10044, dilution 1:10,000) at room temperature for 2 h. Membranes were then again washed three times with TBS-T and one time with TBS. Fluorescence emission at […] of dried membranes was scanned on Odyssey CLx (LI-COR). Cleavage efficiency and inhibition were analyzed as described[23] using Image Studio Lite (LI-COR), Excel (Microsoft) and GraphPad Prism 9 (GraphPad Software, Inc.).

HEK293T cells = assay: JC-1 mitochondrial membrane potential assay; format: cell-based, human; details: 5 µM compound 5 or CCCP, at least three hours, compared to DMSO
Method: Staining of cells for the determination of mitochondrial membrane potential was carried out with the JC-1 mitochondrial staining kit (Sigma-Aldrich) according to the kit’s instructions; stained cells were immediately taken to live cell imaging.
For fixation, cells were incubated for 15 min with 4% formaldehyde (16% formaldehyde diluted in PBS, Thermo Scientific) and washed in PBS. The cover glasses were mounted with Fluoromount-G (Southern Biotech) on microscope slides. All microscopy was performed on an LSM 780 system (Carl Zeiss) with a Plan-APOCHROMAT 63× 1.4NA oil objective (Carl Zeiss) and pinhole settings of 1 AU with the Zeiss ZEN 2010 software. Image processing and analysis was performed using ImageJ (http://rsb.info.nih.gov/ij/). […] Parkin recruitment events to the mitochondria were counted by hand throughout each z-stack and cell. […] JC-1 images were handled as summed intensity z-stack projections, as well as subjected to flatfield correction and subtraction of background before measuring the fluorescence levels normalized to the number of cell nuclei. The fluorescence intensity ratio between the red and green signal was calculated and compared to DMSO as a ratio of 1. Data were evaluated using Excel and GraphPad Prism 6.

Q: Which results are given for `CC(=O)N[C@@H](C)C(=O)N[C@H](C(=O)N[C@@H](Cc1ccccc1)C(=O)N[C@@H](CC(C)C)C(=O)N[C@@H](C)C(=O)C(=O)NCCCCc1ccccc1)C(C)C` [compound 5] (Ac-AVFL[X1]-{NH(4-phenylbutyl)})?
A: IC50 (PARL; Flp-In HEK293 T-REx PARL KO cells with inducible PARL-FLAG, PGAM5-Myc, mean ± SEM of four or three experiments, read-out: Apparent IC50, PGAM5 cleavage by overexpressed PARL): 410 nM; Fold better than compound 6 in cells (PARL; ratio of apparent IC50 values, compound 5 vs compound 6): about 8 fold; Effect on mitochondrial membrane potential (JC-1 aggregate to monomer ratio) (HEK293T cells): does not depolarize; also recorded: does not significantly alter the membrane potential
